The source of these data is patent publication EP3928779A1 (Chugai Seiyaku Kabushiki Kaisha, priority 2014, dated 2016).

The subject of this assay is rat small-intestinal brush border membrane vesicles. The assay can be described thus: Inhibitory effect on 33PO4 uptake into rat small-intestinal brush border membrane vesicles (rapid filtration method). In kind it is biochemical. Conditions: 33PO4 uptake into rat small-intestinal BBMVs; test compound 1 µM; reacted for 60 seconds. How it is done:
Brush border membrane vesicles (BBMVs) were prepared using the upper region of the small intestine of each Wistar female rat (4-5 weeks old). […] The ^33PO4 transport activity of the small-intestinal BBMVs was determined by the rapid filtration method. […] Then, ice-cold buffer C (110 mM NaCl, 1 mM KH2PO4, and 10 mM HEPES (pH 7.5)) was added to each reaction mixture, which was immediately suctionfiltered through a Millipore filter. The filter was washed with buffer C, and each sample was then dissolved in a liquid scintillator. The amount of ^33PO4 uptake into BBMVs was measured using a liquid scintillation counter. […]
For `C[C@]12CCCN1N(Cc1ccc(SCCN3CCOCC3)c(F)c1F)C(=O)C(C(=O)Nc1ccc(C(F)(F)F)cc1-c1ccc(C(F)(F)F)nc1)=C2O.Cl` [Example 163, (4aR)-1-[[2,3-Difluoro-4-(2-morpholin-4-ylethylsulfanyl)phenyl]methyl]-4-hydroxy-4a-methyl-2-oxo-N-[4-(trifluoromethyl)-2-[6-(trifluoromethyl)pyridin-3-yl]phenyl]-6,7-dihydro-5H-pyrrolo[1,2-b]pyridazine-3-carboxamide hydrochloride], the “Rate of uptake inhibition (%) (1 µM)” value turned out to be 79%.
In the case of `Cc1c(-c2cc(C(F)(F)F)ccc2NC(=O)C2=C(O)[C@H](C(C)(C)C)N(C)N(Cc3ccc(OCCN4CCOCC4)c(F)c3F)C2=O)ncnc1C(F)(F)F` [Example 278], the “Rate of uptake inhibition (%) (1 µM)” value was determined as 69%.
Regarding `COc1cccc(-c2cc(C(F)(F)F)ccc2NC(=O)C2=C(O)[C@@]3(C)CCCN3N(Cc3ccc(OC[C@H]4CCCO4)c(F)c3F)C2=O)c1OC` [Example 159], the “Rate of uptake inhibition (%) (1 µM)” value amounted to 89%.
Under `C[C@]12CCCN1N(Cc1ccc(F)c(Br)c1)C(=O)C(C(=O)Nc1ccc(C(F)(F)F)cc1-c1cc(C(F)(F)F)ncn1)=C2O` [Example 184] stands 79%; under `CN1N(Cc2cccc(F)c2F)C(=O)C(C(=O)Nc2ccc(Cl)cc2-c2ccc(C(F)(F)F)nc2)=C(O)C12CCC2` [Example 256], 79%.
To `Cc1c(C#N)ncnc1-c1cc(C(F)(F)F)ccc1NC(=O)C1=C(O)C2(CCC2)N(C)N(Cc2ccc(OCCN3CCOCC3)c(F)c2F)C1=O` [Example 283] belongs 45%.
`CN1N(Cc2ccc(OCCN3CCOCC3)c(F)c2F)C(=O)C(C(=O)Nc2ccc(Br)c(C(F)(F)F)n2)=C(O)C12CCCCC2` [Example 298]: the “Rate of uptake inhibition (%) (1 µM)” value was 10%.
As to `CN1N(Cc2cccc(F)c2F)C(=O)C(C(=O)Nc2ccc(C(F)(F)F)cc2-c2cc(C(F)(F)F)ncn2)=C(O)C12CCC2` [Example 300], the “Rate of uptake inhibition (%) (1 µM)” value worked out at 74%.
For the molecule `C[C@]12CCCN1N(Cc1ccc(C#CCN3CCCC3=O)c(F)c1F)C(=O)C(C(=O)Nc1ccc(Br)c(F)c1)=C2O` [Example 131], the “Rate of uptake inhibition (%) (1 µM)” value is given as 87%.
Turning to `CN1N(Cc2ccc(OCCOCCNC(=O)[C@@H](O)[C@H](O)[C@@H](O)[C@@H](O)CO)c(F)c2F)C(=O)C(C(=O)Nc2ccc(C(F)(F)F)cc2-c2cc(C(F)(F)F)ncn2)=C(O)C12CCCC2` [Example 427, 7-[[2,3-Difluoro-4-[2-[2-[[(2S,3R,4S,5S)-2,3,4,5,6-pentahydroxyhexanoyl]amino]ethoxy]ethoxy]phenyl]methyl]-10-hydroxy-6-methyl-8-oxoN-[4-(trifluoromethyl)-2-[6-(trifluoromethyl)pyrimidin-4-yl]phenyl]-6,7-diazaspiro[4.5]dec-9-ene-9-carboxamide], the “Rate of uptake inhibition (%) (1 µM)” value was 12%.
For `C[C@]12CCCN1N(Cc1ccc(C#N)cc1)C(=O)C(C(=O)Nc1cc(F)c(Br)c(F)c1)=C2O` [Example 222], the “Rate of uptake inhibition (%) (1 µM)” value worked out at 97%.
For `CN1[C@@H](C(C)(C)C)C(O)=C(C(=O)Nc2ccc(C(F)(F)F)cc2-c2ccnc(C#N)c2)C(=O)N1Cc1ccc(OCCN2CCOCC2)c(F)c1F` [Example 271], the “Rate of uptake inhibition (%) (1 µM)” value worked out at 60%.
`CN(CCOCCC(=O)NCC(O)CO)CCOc1ccc(CN2C(=O)C(C(=O)Nc3ccc(C(F)(F)F)cc3-c3cc(C(F)(F)F)ncn3)=C(O)C3(CCCC3)N2C)c(F)c1F` (stereo not drawn) [Example 426]: the “Rate of uptake inhibition (%) (1 µM)” value amounted to 24%.
Regarding `C[C@]12CCCN1N(Cc1cc(F)cc(F)c1)C(=O)C(C(=O)Nc1ccc(C(F)(F)F)cc1-c1cc(C(F)(F)F)ncn1)=C2O` [Example 213], the “Rate of uptake inhibition (%) (1 µM)” value amounted to 79%.
As for `C[C@]12CCCN1N(Cc1cccc(F)c1F)C(=O)C(C(=O)Nc1ccc(C(F)(F)F)cc1-c1cnc(N3CC4(COC4)C3)c(C#N)c1)=C2O` [Example 111, (4aR)-N-[2-[5-Cyano-6-(2-oxa-6-azaspiro[3.3]heptan-6-yl)pyridin-3-yl]-4-(trifluoromethyl)phenyl]-1-[(2,3-difluorophenyl)methyl]-4-hydroxy-4a-methyl-2-oxo-6.7-dihydro-5H-pyrrolo[1,2-b]pyridazine-3-carboxamide], the “Rate of uptake inhibition (%) (1 µM)” value is 56%.
For “(4aS,5S,8R)-1-(3-Fluorobenzyl)-4-hydroxy-N-(5-methyl-2-(trifluoromethyl)furan-3-yl)-2-oxo-2,4a,5,6,7,8-hexahydro-1H-5,8-methanopyrido[1,2-b]pyridazine-3-carboxamide [Example 20]”, the “Rate of uptake inhibition (%) (1 µM)” value was determined as 21%.
On to `COc1cc(C)c(-c2cc(C(F)(F)F)ccc2NC(=O)C2=C(O)[C@@]3(C)CCCN3N(Cc3cccc(F)c3F)C2=O)cn1` [Example 80], for which the “Rate of uptake inhibition (%) (1 µM)” value came to 75%.
Regarding “(4aR)-1-[(3-Fluorophenyl)methyl]-4-hydroxy-4a-methyl-N-[5-methyl-2-(trifluoromethyl)furan-3-yl]-2-oxo-6,7-dihydro-5H-pyrrolo[1,2-b]pyridazine-3-carboxamide [Example 6]”, the “Rate of uptake inhibition (%) (1 µM)” value worked out at 48%.
Turning to `C[C@]12CCCN1N(Cc1c(F)cc(C#CCCCCOC[C@H](O)CO)cc1F)C(=O)C(C(=O)Nc1ccc(C(F)(F)F)cc1-c1ccc(C(F)(F)F)nc1)=C2O.[Na+]` [Example 143], the “Rate of uptake inhibition (%) (1 µM)” value is on record as 71%.
As for `COc1cccc(-c2cc(C(F)(F)F)ccc2NC(=O)C2=C(O)[C@@]3(C)CCCN3N(Cc3ccc(CCCOCCOCCOCCO)c(F)c3F)C2=O)c1OC` [Example 142], the “Rate of uptake inhibition (%) (1 µM)” value was 76%.
Take `C[C@]12CCCN1N(Cc1cccc(F)c1F)C(=O)C(C(=O)Nc1ccc(C(F)(F)F)cc1)=C2O` [Example 89]: the “Rate of uptake inhibition (%) (1 µM)” value is 67%.
With `CN1N(Cc2ccc(OCCCOCCO)c(F)c2F)C(=O)C(C(=O)Nc2ccc(C(F)(F)F)cc2-c2cc(C(F)(F)F)ncn2)=C(O)C12CCCC2` [Example 395], the “Rate of uptake inhibition (%) (1 µM)” value was determined as 39%.
In the case of `CN1N(Cc2ccc(OCCN3CCOCC3)c(F)c2F)C(=O)C(C(=O)Nc2ccc(Cl)cc2-c2cc(C(F)(F)F)ncn2)=C(O)C12CCCC2` [Example 286], the “Rate of uptake inhibition (%) (1 µM)” value stood at 50%.
Consider `C[C@@]12CCCN1N(Cc1ccc(OCCN3CCOCC3)c(F)c1F)C(=O)C(C(=O)Nc1ccc(Cl)cc1-c1cc(C(F)(F)F)ncn1)=C2O.Cl` [Example 107], for which the “Rate of uptake inhibition (%) (1 µM)” value is on record as 54%.
Consider `CN1N(Cc2ccc(OCCN3CCN(CCCO)CC3)c(F)c2F)C(=O)C(C(=O)Nc2ccc(C(F)(F)F)cc2-c2cc(C(F)(F)F)ncn2)=C(O)C12CCC2` [Example 362], for which the “Rate of uptake inhibition (%) (1 µM)” value is 17%.
On to `CCC1(CC)C(O)=C(C(=O)Nc2ccc(C(F)(F)F)cc2-c2cc(C(F)(F)F)ncn2)C(=O)N(Cc2ccc(OCCN3CCOCC3)c(F)c2F)N1C` [Example 291], for which the “Rate of uptake inhibition (%) (1 µM)” value is on record as 47%.
For `CN1N(Cc2cccc(F)c2F)C(=O)C(C(=O)Nc2ccc(Cl)cc2-c2ccc(C(F)(F)F)nc2)=C(O)C1(C)C` [Example 309], the “Rate of uptake inhibition (%) (1 µM)” value is 68%.
Regarding `C[C@]12CCCN1N(Cc1cccc(F)c1F)C(=O)C(C(=O)Nc1ccc(Cl)cc1-c1ccc(C(F)(F)F)nc1)=C2O` [Example 86], the “Rate of uptake inhibition (%) (1 µM)” value came out at 83%.
As to `CN1N(Cc2ccc(OCCN3CCN(CCO)CC3)c(F)c2F)C(=O)C(C(=O)Nc2ccc(C(F)(F)F)cc2-c2cc(C(F)(F)F)ncn2)=C(O)C12CCC2` [Example 360], the “Rate of uptake inhibition (%) (1 µM)” value came to 21%.
`C[C@]12CCCN1N(Cc1cccc(F)c1F)C(=O)C(C(=O)Nc1ccc(C(F)(F)F)cc1-c1cc(C(F)(F)F)ncn1)=C2O` [Example 21, (4aR)-1-[(2,3-Difluorophenyl)methyl]-4-hydroxy-4a-methyl-2-oxo-N-[4-(trifluoromethyl)-2-[6-(trifluoromethyl)pyrimidin-4-yl]phenyl]-6,7-dihydro-5H-pyrrolo[1,2-b]pyridazine-3-carboxamide]: the “Rate of uptake inhibition (%) (1 µM)” value amounted to 61%.
Consider `CCN(CCN(C)CCOC)c1ccc(CN2C(=O)C(C(=O)Nc3ccc(C(F)(F)F)cc3-c3cc(C(F)(F)F)ncn3)=C(O)C3(CCCC3)N2C)c(F)c1F` [Example 443], for which the “Rate of uptake inhibition (%) (1 µM)” value worked out at 28%.
Consider `COC(=O)c1cc(F)c(CN2C(=O)C(C(=O)Nc3ccc(C(F)(F)F)cc3-c3ccc(C(F)(F)F)nc3)=C(O)[C@@]3(C)CCCN23)c(F)c1` [Example 165, Methyl 4-[[(4aR)-4-Hydroxy-4a-methyl-2-oxo-3-[[4-(trifluoromethyl)-2-[6-(trifluoromethyl)pyridin-3-yl]phenyl]carbamoyl]-6,7-dihydro-5H-pyrrolo[1,2-b]pyridazin-1 - yl]methyl]-3,5-difluorobenzoate], for which the “Rate of uptake inhibition (%) (1 µM)” value was 75%.
Regarding `CSc1ccc(-c2cc(C(F)(F)F)ccc2NC(=O)C2=C(O)[C@@]3(C)CCCN3N(Cc3ccc(CCCCCCC(=O)O)c(F)c3F)C2=O)cn1` [Example 115, 7-[4-[[(4aR)-4-1-Hydroxy-4a-methyl-3-[[2-(6-methylsulfanylpyridin-3-yl)-4-(trifluoromethyl)phenyl]carbamoyl]-2-oxo-6,7-dihydro-5H-pyrrolo[1,2-b]pyridazin-1-yl]methyl]-2,3-difluorophenyl]heptanoate], the “Rate of uptake inhibition (%) (1 µM)” value came out at 85%.
To `CCCN(CCN(C)CCOC)c1ccc(CN2C(=O)C(C(=O)Nc3ccc(C(F)(F)F)cc3-c3cc(C(F)(F)F)ncn3)=C(O)C3(CCCC3)N2C)c(F)c1F` [Example 444] belongs 24%.
Under `C[C@]12CCCN1N(Cc1ccc(Cl)cc1)C(=O)C(C(=O)Nc1ccc(C(F)(F)F)cc1-c1cc(C(F)(F)F)ncn1)=C2O` [Example 182] stands 86%; under `CN(CCOc1ccc(CN2C(=O)C(C(=O)Nc3ccc(C(F)(F)F)cc3-c3cc(C(F)(F)F)ncn3)=C(O)C3(CCCC3)N2C)c(F)c1F)C1CCOCC1` [Example 365], 34%.
